Data taken from patent US20240150293A1, “SPIROCYCLOHEXANE DERIVATIVES, PHARMACEUTICAL COMPOSITIONS CONTAINING THEM AND THEIR USES AS ANTI-APOPTOTIC INHIBITORS” (LES LABORATOIRES SERVIER, priority 2021, published 2024).

These molecules were tested against Mcl-1 protein (UniProtKB Q07820) (Homo sapiens (Human), UniProt Q07820) (assay: Inhibition of Mcl-1 by the fluorescence polarisation assay (Example A, Method A)). Conditions: fluorescence polarization assay.
Type: binding
Outline: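 Protein (5 nM) and fluorescein-tagged peptide tracer (1 nM) incubated with 11-point compound series for 2 h at room temperature in HEPES/NaCl/Tween 20 buffer, pH 7.4, 5% DMSO. Displacement read as decrease in polarisation; IC50 fitted by 4-parameter logistic, converted to Ki (cKi or eKi).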

Mcl-1 protein, sequence (Q07820 whole entry): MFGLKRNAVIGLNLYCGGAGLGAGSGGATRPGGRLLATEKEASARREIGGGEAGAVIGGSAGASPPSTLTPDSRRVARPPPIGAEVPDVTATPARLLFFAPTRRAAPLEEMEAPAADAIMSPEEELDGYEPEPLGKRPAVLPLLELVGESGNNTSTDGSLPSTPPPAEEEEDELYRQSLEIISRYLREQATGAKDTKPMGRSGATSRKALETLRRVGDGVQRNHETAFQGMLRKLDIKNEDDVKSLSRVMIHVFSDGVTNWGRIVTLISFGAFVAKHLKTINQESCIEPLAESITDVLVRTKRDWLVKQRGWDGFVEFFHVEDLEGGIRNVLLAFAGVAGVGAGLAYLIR

SMILES	Ki
O=C(O)[C@]1(Nc2cccc(Cl)c2)CC[C@@]2(CC1)c1ccccc1CC2C1CCCC1 (single isomer, unassigned) [Example 92, (1r,4r)-4-(3-chloroanilino)-2′-cyclopentyl-2′,3′-dihydrospiro[cyclohexane-1,1′-indene]-4-carboxylic acid]	7370 nM
O=C(O)[C@]1(Nc2cccc(Br)c2)CC[C@@]2(CC1)c1ccccc1CC2CCc1cccc2[nH]ccc12 (stereo partly drawn) [Example 163, (1r,4r)-4-(3-bromoanilino)-2′-[2-(1H-indol-4-yl)ethyl]-2′,3′-dihydrospiro[cyclohexane-1,1′-indene]-4-carboxylic acid]	679 nM
CN1c2ccccc2C2(CCC(Nc3cccc(Br)c3)(C(=O)O)CC2)C1CCc1ccccc1 (single isomer, unassigned) [Example 25, 4-(3-bromoanilino)-1′-methyl-2′-(2-phenylethyl)-1′,2′-dihydrospiro[cyclohexane-1,3′-indole]-4-carboxylic acid]	887 nM
CC1=Cc2ccccc2[C@]12CC[C@@](Nc1cccc(Cl)c1)(C(=O)O)CC2 [Example 143, (1r,4r)-4-(3-chloroanilino)-2′-methylspiro[cyclohexane-1,1′-indene]-4-carboxylic acid]	182 nM
Cc1ccccc1C1Cc2ccccc2C12CCC(Nc1cccc(Br)c1)(C(=O)O)CC2 (stereo not drawn) [Example 214, 4-(3-bromoanilino)-2′-(2-methylphenyl)-2′,3′-dihydrospiro[cyclohexane-1,1′-indene]-4-carboxylic acid]	7900 nM
C/C=C/c1ccc2c(c1)[C@]1(CC[C@](Nc3cccc(Br)c3)(C(=O)O)CC1)C(=O)N2C [Example 12, (1r,4r)-4-(3-bromoanilino)-1′-methyl-2′-oxo-5′-[(1E)-prop-1-en-1-yl]-1′,2′-dihydrospiro[cyclohexane-1,3′-indole]-4-carboxylic acid]	12400 nM

Further lines, results first:

Ki	SMILES
6170 nM	O=C(NCCc1ccccc1)C1Cc2ccccc2[C@]12CC[C@@](Nc1cccc(Cl)c1)(C(=O)O)CC2 (single isomer, unassigned) [Example 406, (1r,4r)-4-(3-chloroanilino)-2′-[(2-phenylethyl)carbamoyl]-2′,3′-dihydrospiro[cyclohexane-1,1′-indene]-4-carboxylic acid]
925 nM	O=C(O)[C@]1(Nc2cccc(Cl)c2)CC[C@@]2(CC1)c1ccccc1CC2c1ccc2c(c1)OCC2 (single isomer, unassigned) [Example 287, (1r,4r)-4-(3-chloroanilino)-2′-(2,3-dihydro-1-benzofuran-6-yl)-2′,3′-dihydrospiro[cyclohexane-1,1′-indene]-4-carboxylic acid]
1060 nM	COc1ccc(C2=Cc3ccccc3[C@]23CC[C@@](Nc2cccc(Cl)c2)(C(=O)O)CC3)cc1 [Example 230, (1s,4s)-4-(3-chloroanilino)-2′-(4-methoxyphenyl)spiro[cyclohexane-1,1′-indene]-4-carboxylic acid]
217 nM	COc1ccc([C@@H]2Cc3ccccc3[C@]23CC[C@@](Nc2cccc(Cl)c2)(C(=O)O)CC3)cc1 [Example 240, (1r,2′S,4S)-4-(3-chloroanilino)-2′-(4-methoxyphenyl)-2′,3′-dihydrospiro[cyclohexane-1,1′-indene]-4-carboxylic acid]
1100 nM	O=C(O)[C@]1(Nc2cccc(Cl)c2)CC[C@]2(CC1)C(COCCc1ccc(Cl)cc1)=Cc1ccccc12 [Example 420, (1s,4s)-4-(3-chloroanilino)-2′-{[2-(4-chlorophenyl)ethoxy]methyl}spiro[cyclohexane-1,1′-indene]-4-carboxylic acid]
906 nM	O=C(O)[C@]1(Nc2cccc(Cl)c2)CC[C@@]2(CC1)c1ccccc1CC2c1ccc(Cl)cc1 (single isomer, unassigned) [Example 319, (1r,4r)-4-(3-chloroanilino)-2′-(4-chlorophenyl)-2′,3′-dihydrospiro[cyclohexane-1,1′-indene]-4-carboxylic acid]
